Test results reported in patent US20050130134A1, “Means and methods for monitoring non-nucleoside reverse transcriptase inhibitor antiretroviral therapy and guiding therapeutic decisions in the treatment HIV-AIDS” (ViroLogic, Inc., priority 2000, published 2005).
“Also recorded” adds a separate entry of the source.

Legend:
[1] = system: HIV-1 reverse transcriptase Y181C + F227L (Y181C-F227L-RTV); test: Phenotypic susceptibility assay, site directed mutant Y181C-F227L-RTV; format: cell-based; settings: >1 loss, <1 increased susceptibility
Protocol: (§1) Resistance tests were carried out with resistance test vectors using two host cell types. Resistance test vector viral particles were produced by a first host cell (the resistance test vector host cell) that was prepared by transfecting a packaging host cell with the resistance test vector and the packaging expression vector. The resistance test vector viral particles were then used to infect a second host cell (the target host cell) in which the expression of the indicator gene is measured.
(§2) The resistance test vectors containing a functional luciferase gene cassette were constructed and host cells were transfected with the resistance test vector DNA. The resistant test vectors contained patient-derived reverse transcriptase and protease sequences that were either susceptible or resistant to the antiretroviral agents, such as nucleoside reverse transcriptase inhibitors, non-nucleoside reverse transcriptase inhibitors and protease inhibitors. The resistance test vector viral particles produced by transfecting the resistance test vector DNA into host cells, either in the presence or absence of protease inhibitors, were used to infect target host cells grown either in the absence of NRTI or NNRTI or in the presence of increasing concentrations of the drug. […] The IC50 values were determined by plotting percent drug inhibition vs. log10 drug concentration.
(§3) Host cells were seeded in 10-cm-diameter dishes and were transfected several days after plating with resistance test vector plasmid DNA and the envelope expression vector. […] HIV capsid protein (p24) levels in the harvested cell culture media were determined by an EIA method as described by the manufacturer (SIAC; Frederick, Md.). […] The inhibitory effect of the drug was determined using the following equation: % luciferase inhibition=1-(RLUluc[drug]÷RLUluc)×100 where RLUluc [drug] is the relative light unit of luciferase activity in infected cells in the presence of drug and RLUluc is the Relative Light Unit of luciferase activity in infected cells in the absence of drug. […]

[2] = system: HIV-1 reverse transcriptase L100I (L100I-RTV); test: Phenotypic susceptibility assay, site directed mutant L100I-RTV; format: cell-based; settings: >1 loss of susceptibility
Protocol: as §1, §2, §3

[3] = system: HIV-1 reverse transcriptase K101E (K101E-RTV); test: Phenotypic susceptibility assay, site directed mutant K101E-RTV; format: cell-based
Protocol: as §1
(§4) The resistance test vectors containing a functional luciferase gene cassette were constructed and host cells were transfected with the resistance test vector DNA. The resistant test vectors contained patient-derived reverse transcriptase and protease sequences that were either susceptible or resistant to the antiretroviral agents, such as nucleoside reverse transcriptase inhibitors, non-nucleoside reverse transcriptase inhibitors and protease inhibitors. The resistance test vector viral particles produced by transfecting the resistance test vector DNA into host cells, either in the presence or absence of protease inhibitors, were used to infect target host cells grown either in the absence of NRTI or NNRTI or in the presence of increasing concentrations of the drug. The amount of luciferase activity produced in infected target host cells in the presence of drug was compared to the amount of luciferase produced in infected target host cells in the absence of drug. Drug resistance was measured as the amount of drug required to inhibit by 50% the luciferase activity detected in the absence of drug (inhibitory concentration 50%, IC50). The IC50 values were determined by plotting percent drug inhibition vs. log10 drug concentration.
(§5) Host cells were seeded in 10-cm-diameter dishes and were transfected several days after plating with resistance test vector plasmid DNA and the envelope expression vector. Transfections were performed using a calcium-phosphate precipitation procedure. The cell culture media containing the DNA precipitate was replaced with fresh medium, from one to 24 hours, after transfection. Cell culture media containing resistance test vector viral particles was harvested one to four days after transfection and was passed through a […] filter before being stored at −80° C. HIV capsid protein (p24) levels in the harvested cell culture media were determined by an EIA method as described by the manufacturer (SIAC; Frederick, Md.). Before infection, target cells (293 and 293/T) were plated in cell culture media. Control infections were performed using cell culture media from mock transfections (no DNA) or transfections containing the resistance test vector plasmid DNA without the envelope expression plasmid. One to three or more days after infection the media was removed and cell lysis buffer (Promega) was added to each well. […] The inhibitory effect of the drug was determined using the following equation: % luciferase inhibition=1-(RLUluc[drug]÷RLUluc)×100 where RLUluc [drug] is the relative light unit of luciferase activity in infected cells in the presence of drug and RLUluc is the Relative Light Unit of luciferase activity in infected cells in the absence of drug. IC50 values were obtained from the sigmoidal curves that were generated from the data by plotting the percent inhibition of luciferase activity vs. the log10 drug concentration. […]

[4] = system: HIV-1 reverse transcriptase E138A + Y188L (E138A-Y188L-RTV); test: Phenotypic susceptibility assay, site directed mutant E138A-Y188L-RTV; format: cell-based; settings: >1 loss of susceptibility
Protocol: as §1, §2, §3

[5] = system: HIV-1 reverse transcriptase V108I (V108I-RTV); test: Phenotypic susceptibility assay, site directed mutant V108I-RTV; format: cell-based; settings: >1 loss of susceptibility
Protocol: as §1, §2, §3

[6] = system: HIV-1 reverse transcriptase K103N (K103N-RTV); test: Phenotypic susceptibility assay, site directed mutant K103N-RTV; format: cell-based; settings: for change in susceptibility / resistance: K103N mutation; for fold change in susceptibility compared to wild type control RTV: K103N-RTV, >1 loss of susceptibility
Protocol: as §1, §4, §5

[7] = system: HIV-1 reverse transcriptase Y181I (Y181I-RTV); test: Phenotypic susceptibility assay, site directed mutant Y181I-RTV; format: cell-based; settings: >1 loss of susceptibility
Protocol: as §1, §2, §3

[8] = system: HIV-1 reverse transcriptase F227L (F227L-RTV); test: Phenotypic susceptibility assay, site directed mutant F227L-RTV; format: cell-based; settings: >1 loss, <1 increased susceptibility
Protocol: as §1, §2, §3

[9] = system: HIV-1 reverse transcriptase Y188C (Y188C-RTV); test: Phenotypic susceptibility assay, site directed mutant Y188C-RTV; format: cell-based; settings: >1 loss of susceptibility
Protocol: as §1, §2, §3

[10] = system: T66I integrase site-directed mutant; test: Phenotypic susceptibility assay, integrase T66I mutated resistance test vector; format: cell-based, HIV; settings: {}
Protocol: (§6) Transfections were performed using a calcium-phosphate precipitation procedure. […] Cell lysates were assayed for luciferase activity (FIG. 3). […] The drug inhibition curves are shown in (FIG. 3).
A resistance test vector containing the threonine to isoleucine mutation at position 66 of the integrase protein (T66I) was constructed and tested using the phenotypic assay described earlier.

[11] = system: HIV-1 reverse transcriptase K101E + G190A (K101E-G190A-RTV); test: Phenotypic susceptibility assay, site directed mutant K101E-G190A-RTV; format: cell-based; settings: >1 loss of susceptibility
Protocol: as §1, §2, §3

[12] = system: HIV-1 reverse transcriptase K103N + G190A (K103N-G190A-RTV); test: Phenotypic susceptibility assay, site directed mutant K103N-G190A-RTV; format: cell-based; settings: K103N-G190-RTV (K103N + G190A); >1 loss of susceptibility
Protocol: as §1, §2, §3

[13] = system: HIV-1 reverse transcriptase E138A (E138A-RTV); test: Phenotypic susceptibility assay, site directed mutant E138A-RTV; format: cell-based; settings: >1 loss of susceptibility
Protocol: as §1, §2, §3

[14] = system: HIV-1 reverse transcriptase A98G (A98G-RTV); test: Phenotypic susceptibility assay, site directed mutant A98G-RTV; format: cell-based; settings: >1 loss of susceptibility
Protocol: as §1, §2, §3

[15] = system: HIV-1 reverse transcriptase V106A (V106A-RTV); test: Phenotypic susceptibility assay, site directed mutant V106A-RTV; format: cell-based; settings: >1 loss of susceptibility
Protocol: as §1, §2, §3

[16] = system: HIV-1 reverse transcriptase K101E + G190S (K101E-G190S-RTV); test: Phenotypic susceptibility assay, site directed mutant K101E-G190S-RTV; format: cell-based
Protocol: as §1, §4
Host cells were seeded in 10-cm-diameter dishes and were transfected several days after plating with resistance test vector plasmid DNA and the envelope expression vector. Transfections were performed using a calcium-phosphate precipitation procedure. The cell culture media containing the DNA precipitate was replaced with fresh medium, from one to 24 hours, after transfection. Cell culture media containing resistance test vector viral particles was harvested one to four days after transfection and was passed through a […] filter before being stored at −80° C. HIV capsid protein (p24) levels in the harvested cell culture media were determined by an EIA method as described by the manufacturer (SIAC; Frederick, Md.). Before infection, target cells (293 and 293/T) were plated in cell culture media. Control infections were performed using cell culture media from mock transfections (no DNA) or transfections containing the resistance test vector plasmid DNA without the envelope expression plasmid. One to three or more days after infection the media was removed and cell lysis buffer (Promega) was added to each well. […] The inhibitory effect of the drug was determined using the following equation: % luciferase inhibition=1-(RLUluc[drug]÷RLUluc)×100 where RLUluc [drug] is the relative light unit of luciferase activity in infected cells in the presence of drug and RLUluc is the Relative Light Unit of luciferase activity in infected cells in the absence of drug. IC50 values were obtained from the sigmoidal curves that were generated from the data by plotting the percent inhibition of luciferase activity vs. the log10 drug concentration.
Mutations may be incorporated alone and/or in combination with other known drug resistance mutations that are thought to modulate the susceptibility of HIV to a certain drug or class of drugs. Mutations are introduced into the resistance test vector through any of the widely known methods for site-directed mutagenesis. In one embodiment of this invention the mega-primer PCR method for site-directed mutagenesis is used.

[17] = system: HIV-1 reverse transcriptase P236L plus K103N, Y181C or both; test: Phenotypic susceptibility assay, P236L with K103N, Y181C or K103N+Y181C; format: cell-based; settings: P236L added to K103N, Y181C or K103N+Y181C versus corresponding RTV lacking P236L
Protocol: as §6
Resistance test vectors were constructed containing the P236L mutation alone and in combination with other known drug resistance mutations (K103N, Y181C) that are known to modulate the susceptibility of HIV-1 to NNRTIs. […] The P236L mutation was also introduced into a RTV containing mutations at K103N, Y181C or both (K103N+Y181C).

[18] = K101E-RTV, >1 loss of susceptibility
[19] = >1 loss, <1 increased susceptibility
[20] = second pair of values printed in the K101E-RTV sentence of b280

| SMILES | fold change in susceptibility compared to wild type control RTV [1] [fold] | fold change in susceptibility compared to wild type control RTV [2] [fold] | fold change in susceptibility compared to wild type control RTV [3, 18] [fold] | fold change in susceptibility compared to wild type control RTV [4] | fold change in susceptibility compared to wild type control RTV [5] [fold] | change in susceptibility / resistance [6] | fold change in susceptibility compared to wild type control RTV [6] [fold] | fold change in susceptibility compared to wild type control RTV [7] [fold] | fold change in susceptibility compared to wild type control RTV [8] [fold] | fold change in susceptibility compared to wild type control RTV [9] [fold] | increase in susceptibility compared to wild type control RTV [10] [fold] | fold change in susceptibility compared to wild type control RTV [11] | fold change in susceptibility compared to wild type control RTV [12] | fold change in susceptibility compared to wild type control RTV [13] [fold] | fold change in susceptibility compared to wild type control RTV [14] [fold] | fold change in susceptibility compared to wild type control RTV [15] [fold] | fold change in susceptibility compared to wild type control RTV ([16]; >1 loss of susceptibility) | fold change in susceptibility compared to wild type control RTV [16, 19] [fold] | change in susceptibility [17] | fold change in susceptibility compared to wild type control RTV [3, 20] [fold] |
| --- | --- | --- | --- | --- | --- | --- | --- | --- | --- | --- | --- | --- | --- | --- | --- | --- | --- | --- | --- | --- |
| CC(C)Nc1cccnc1N1CCN(C(=O)c2cc3cc(NS(C)(=O)=O)ccc3[nH]2)CC1 [delavirdine] | 0.89 | 30 | 5 | 75 fold | 1.3 | reduced susceptibility; also recorded: resistance | 50 | 20 | 0.03 | 3 | 8 to 10 | 2 fold | 40 fold | 1.6 | 3 | 5 | 1.4 fold | 0.5 | less susceptible (more resistant); also recorded: additional reduction; also recorded: severe resistance |  |
| O=C1Nc2ccc(Cl)cc2[C@@](C#CC2CC2)(C(F)(F)F)O1 [efavirenz] | 0.99 | 10 | 5 | 88 fold | 1.7 |  | 30 | 1.4 | 0.48 | 20 | 8 to 10 | 120 fold | 215 fold | 1.4 | 3 | 1.7 | greater than 250 fold | 7.6 | restores a significant portion of the loss of susceptibility | 30 |
| Cc1ccnc2c1NC(=O)c1cccnc1N2C1CC1 [nevirapine] | 285 | 3 | 12 | greater than 800 fold | 3 | reduced susceptibility; also recorded: resistance | 55 | 740 | 3 | 30 | 8 to 10 | greater than 800 fold | greater than 800 fold | 1.3 | 8 | 60 | greater than 800 fold | 75 | did not significantly alter; also recorded: little or no additional reduction; also recorded: no effect | 55 |
